Patent publication US9688627B2, “Lactam compounds as EP4 receptor-selective agonists for use in the treatment of EP4-mediated diseases and conditions” (Cayman Chemical Company, Inc., priority 2013, dated 2017)

Columns and labels:
[1] = target: T1, rat EP4 receptor (Rattus norvegicus, UniProt P43114); test: SEAP activity assay on EP4 STEP plate; type: cell-based; conditions: SEAP luminescence, 6-8 hours of stimulation; read-out: STEP cell functional assay EC50 SEAP/EP4
T1 construct: cells seeded on STEP plates
Excerpt: (§1) 2. […] In addition each concentration had triplicates. […] 4. […] Cover the plate with the lid. […] 6. […] 7. […] 8.

[2] = target: T2, rat EP2 receptor (Rattus norvegicus, UniProt Q62928); test: SEAP activity assay on EP2 STEP plate; type: cell-based; conditions: SEAP luminescence, 6-8 hours of stimulation; read-out: STEP cell functional assay EC50 SEAP/EP2
T2 construct: cells seeded on STEP plates
Excerpt: as §1

T2 sequence (Q62928 whole entry): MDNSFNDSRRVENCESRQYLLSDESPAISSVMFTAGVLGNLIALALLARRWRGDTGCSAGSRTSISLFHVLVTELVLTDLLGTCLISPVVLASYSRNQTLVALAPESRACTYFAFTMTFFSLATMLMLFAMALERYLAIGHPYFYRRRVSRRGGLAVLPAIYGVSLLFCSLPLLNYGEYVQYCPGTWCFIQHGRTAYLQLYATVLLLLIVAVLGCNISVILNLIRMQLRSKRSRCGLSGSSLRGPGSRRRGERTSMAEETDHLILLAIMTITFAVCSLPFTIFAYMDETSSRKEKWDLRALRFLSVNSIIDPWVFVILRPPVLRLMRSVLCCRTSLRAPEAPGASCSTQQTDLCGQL
T1 sequence (P43114 whole entry): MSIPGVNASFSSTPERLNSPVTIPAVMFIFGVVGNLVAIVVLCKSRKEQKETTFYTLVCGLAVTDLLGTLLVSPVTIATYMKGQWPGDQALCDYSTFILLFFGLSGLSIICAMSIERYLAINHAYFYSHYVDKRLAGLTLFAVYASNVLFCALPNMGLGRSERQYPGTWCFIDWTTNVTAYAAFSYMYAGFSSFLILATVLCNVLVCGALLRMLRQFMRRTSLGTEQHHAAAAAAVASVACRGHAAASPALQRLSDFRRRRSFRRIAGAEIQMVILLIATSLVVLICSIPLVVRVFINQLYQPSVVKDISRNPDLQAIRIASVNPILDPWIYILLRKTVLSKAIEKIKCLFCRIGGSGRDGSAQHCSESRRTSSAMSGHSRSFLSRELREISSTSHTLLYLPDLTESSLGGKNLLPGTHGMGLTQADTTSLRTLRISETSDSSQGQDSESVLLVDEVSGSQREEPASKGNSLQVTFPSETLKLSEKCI

| SMILES | EC50 [1] | EC50 [2] |
| --- | --- | --- |
| CCC#CCC(C)[C@@H](O)/C=C/[C@H]1CCC(=O)N1CCCCCCC(=O)O (mixture of isomers) [Example 2D, 7-((2R)-2-((3R,4R/S,E)-3-hydroxy-4-methylnon-1-en-6-yn-1-yl)-5-oxopyrrolidin-1-yl)heptanoic acid] | 0.145 nM | 1420 nM |
| CCCC#CCC(C)[C@H](O)/C=C/[C@H]1CCC(=O)N1CCCCCCC(=O)OC (mixture of isomers) [Example 3A, methyl 7-((2R)-2-((3S,4R/S,E)-3-hydroxy-4-methyldec-1-en-6-yn-1-yl)-5-oxopyrrolidin-1-yl)heptanoate] | 8.64 nM | 2490 nM |
| CCCC#CCC(C)[C@@H](O)/C=C/[C@H]1CCC(=O)N1CCCCCCC(=O)OC (mixture of isomers) [Example 3B, methyl 7-((2R)-2-((3R,4R/S,E)-3-hydroxy-4-methyldec-1-en-6-yn-1-yl)-5-oxopyrrolidin-1-yl)heptanoate] | 223 nM | > 10000 nM |
| CCCC#CCC(C)[C@H](O)/C=C/[C@H]1CCC(=O)N1CCCCCCC(=O)O (mixture of isomers) [Example 3C, 7-((2R)-2-((3S,4R/S,E)-3-hydroxy-4-methyldec-1-en-6-yn-1-yl)-5-oxopyrrolidin-1-yl)heptanoic acid] | 0.085 nM | 2260 nM |
| CCCC#CCC(C)[C@@H](O)/C=C/[C@H]1CCC(=O)N1CCCCCCC(=O)O (mixture of isomers) [Example 3D, 7-((2R)-2-((3R,4R/S,E)-3-hydroxy-4-methyldec-1-en-6-yn-1-yl)-5-oxopyrrolidin-1-yl)heptanoic acid] | 29 nM | > 10000 nM |
| CC(CC#Cc1ccccc1)[C@H](O)/C=C/[C@H]1CCC(=O)N1CCCCCCC(=O)O (mixture of isomers) [Example 4C, 7-((2R)-2-((3S,4R/S,E)-3-hydroxy-4-methyl-7-phenylhept-1-en-6-yn-1-yl)-5-oxopyrrolidin-1-yl)heptanoic acid] | 2.49 nM | 830 nM |
| CC#CCC(C)[C@H](O)/C=C/[C@H]1CCC(=O)N1CCc1ccc(C(=O)OC)cc1 (mixture of isomers) [Example 8A, methyl 4-(2-((2R)-2-((3S,4R/S,E)-3-hydroxy-4-methyloct-1-en-6-yn-1-yl)-5-oxopyrrolidin-1-yl)ethyl)benzoate] | 6.74 nM | 364 nM |
| CC#CCC(C)[C@@H](O)/C=C/[C@H]1CCC(=O)N1CCc1ccc(C(=O)OC)cc1 (mixture of isomers) [Example 8B, methyl 4-(2-((2R)-2-((3R,4R/S,E)-3-hydroxy-4-methyloct-1-en-6-yn-1-yl)-5-oxopyrrolidin-1-yl)ethyl)benzoate] | 1640 nM |  |
| CC#CCC(C)[C@@H](O)/C=C/[C@H]1CCC(=O)N1CCc1ccc(C(=O)O)cc1 (mixture of isomers) [Example 8D, 4-(2-((2R)-2-((3R,4R/S,E)-3-hydroxy-4-methyloct-1-en-6-yn-1-yl)-5-oxopyrrolidin-1-yl)ethyl)benzoic acid] | 13.4 nM | 1130 nM |
| CC(CC#Cc1ccccc1)[C@H](O)/C=C/[C@H]1CCC(=O)N1CCc1ccc(C(=O)O)cc1 (mixture of isomers) [Example 11C, 4-(2-((2R)-2-((3S,4R/S,E)-3-hydroxy-4-methyl-7-phenylhept-1-en-6-yn-1-yl)-5-oxopyrrolidin-1-yl)ethyl)benzoic acid] | 0.054 nM | 2960 nM |
| CC(CC#Cc1ccccc1)[C@@H](O)/C=C/[C@H]1CCC(=O)N1CCc1ccc(C(=O)O)cc1 (mixture of isomers) [Example 11D, 4-(2-((2R)-2-((3R,4R/S,E)-3-hydroxy-4-methyl-7-phenylhept-1-en-6-yn-1-yl)-5-oxopyrrolidin-1-yl)ethyl)benzoic acid] | 3.51 nM | 1750 nM |
| CC#CCC(C)[C@H](O)/C=C/[C@H]1CCC(=O)N1Cc1ccc(CC(=O)O)cc1 (mixture of isomers) [Example 12C, 2-(4-(((2R)-2-((3S,4R/S,E)-3-hydroxy-4-methyloct-1-en-6-yn-1-yl)-5-oxopyrrolidin-1-yl)methyl)phenyl)acetic acid] | 2290 nM | > 10000 nM |
| CC#CCC(C)[C@@H](O)/C=C/[C@H]1CCC(=O)N1Cc1ccc(CC(=O)O)cc1 (mixture of isomers) [Example 12D, 2-(4-(((2R)-2-((3R,4R/S,E)-3-hydroxy-4-methyloct-1-en-6-yn-1-yl)-5-oxopyrrolidin-1-yl)methyl)phenyl)acetic acid] | > 10000 nM | > 10000 nM |
| CCC#CCC(C)[C@H](O)/C=C/[C@H]1CCC(=O)N1C/C=C\c1ccc(C(=O)O)s1 (mixture of isomers) [Example 15C, 5-((Z)-3-((2R)-2-((3S,4R/S,E)-3-hydroxy-4-methylnon-1-en-6-yn-1-yl)-5-oxopyrrolidin-1-yl)prop-1-en-1-yl)thiophene-2-carboxylic acid] | 947 nM | > 10000 nM |
| CCC#CCC(C)[C@@H](O)/C=C/[C@H]1CCC(=O)N1C/C=C\c1ccc(C(=O)O)s1 (mixture of isomers) [Example 15D, 5-((Z)-3-((2R)-2-((3R,4R/S,E)-3-hydroxy-4-methylnon-1-en-6-yn-1-yl)-5-oxopyrrolidin-1-yl)prop-1-en-1-yl)thiophene-2-carboxylic acid] | 1600 nM | > 10000 nM |
| CC(CC#Cc1ccccc1)[C@H](O)/C=C/[C@H]1CCC(=O)N1C/C=C\c1ccc(C(=O)O)s1 (mixture of isomers) [Example 16C, 5-((Z)-3-((2R)-2-((3S,4R/S,E)-3-hydroxy-4-methyl-7-phenylhept-1-en-6-yn-1-yl)-5-oxopyrrolidin-1-yl)prop-1-en-1-yl)thiophene-2-carboxylic acid] | 67.2 nM | > 10000 nM |

| SMILES | EC50 [1] | EC50 [2] |
| --- | --- | --- |
| CC(CC#Cc1ccccc1)[C@@H](O)/C=C/[C@H]1CCC(=O)N1C/C=C\c1ccc(C(=O)O)s1 (mixture of isomers) [Example 16D, 5-((Z)-3-((2R)-2-((3R,4R/S,E)-3-hydroxy-4-methyl-7-phenylhept-1-en-6-yn-1-yl)-5-oxopyrrolidin-1-yl)prop-1-en-1-yl)thiophene-2-carboxylic acid] | 1200 nM | > 10000 nM |
| COC(=O)CCCCCCN1C(=O)CC[C@@H]1/C=C/[C@@H](O)CCC#Cc1ccccc1 (single isomer, unassigned) [Example 5A] | 77.7 nM | > 10000 nM |
| COC(=O)CCCCCCN1C(=O)CC[C@@H]1/C=C/[C@H](O)CCC#Cc1ccccc1 (single isomer, unassigned) [Example 5B] | 41.5 nM | > 5000 nM |
| CCC#C[C@H](O)/C=C/[C@H]1CCC(=O)N1CCCCCCC(=O)OC (single isomer, unassigned) [Example 6A] | 6.71 nM | > 3000 nM |
| CCC#C[C@@H](O)/C=C/[C@H]1CCC(=O)N1CCCCCCC(=O)OC (single isomer, unassigned) [Example 6B] |  | > 2000 nM |
| CCC#CC[C@@H](C)[C@H](O)/C=C/[C@H]1CCC(=O)N1CCCCCCC(=O)O [Example 2F, 7-((R)-2-((3S,4R,E)-3-hydroxy-4-methylnon-1-en-6-yn-1-yl)-5-oxopyrrolidin-1-yl)heptanoic acid] | 1.06 ± 0.11 nM |  |
| O=C(O)CCCCCCN1C(=O)CC[C@@H]1/C=C/[C@@H](O)CCC#Cc1ccccc1 [Example 5C, 7-((R)-2-((3S,E)-3-hydroxy-7-phenylhept-1-en-6-yn-1-yl)-5-oxopyrrolidin-1-yl)heptanoic acid] | 111 nM |  |
| O=C(O)CCCCCCN1C(=O)CC[C@@H]1/C=C/[C@H](O)CCC#Cc1ccccc1 [Example 5D, 7-((R)-2-((3R,E)-3-hydroxy-7-phenylhept-1-en-6-yn-1-yl)-5-oxopyrrolidin-1-yl)heptanoic acid] | 46.8 nM |  |
| CCC#C[C@H](O)/C=C/[C@H]1CCC(=O)N1CCCCCCC(=O)O [Example 6C, 7-((R)-2-((R,E)-3-hydroxyhept-1-en-4-yn-1-yl)-5-oxopyrrolidin-1-yl)heptanoic acid] | 4.73 nM |  |
| CCC#C[C@@H](O)/C=C/[C@H]1CCC(=O)N1CCCCCCC(=O)O [Example 6D, 7-((R)-2-((S,E)-3-hydroxyhept-1-en-4-yn-1-yl)-5-oxopyrrolidin-1-yl)heptanoic acid] | 4.79 nM |  |
| O=C(O)CCCCCCN1C(=O)CC[C@@H]1/C=C/[C@@H](O)C#Cc1ccccc1 [Example 7C, 7-((R)-2-((R,E)-3-hydroxy-5-phenylpent-1-en-4-yn-1-yl)-5-oxopyrrolidin-1-yl)heptanoic acid] | 22.3 nM | > 10000 nM |
| CCC#CCC(C)[C@H](O)/C=C/[C@H]1CCC(=O)N1CC#Cc1ccc(C(=O)O)s1 (stereo partly drawn) [Example 13C, 5-(3-((2R)-2-((3S,E)-3-hydroxy-4-methylnon-1-en-6-yn-1-yl)-5-oxopyrrolidin-1-yl)prop-1-yn-1-yl)thiophene-2-carboxylic acid] | 18.3 nM | > 10000 nM |
| CCC#CCC(C)[C@@H](O)/C=C/[C@H]1CCC(=O)N1CC#Cc1ccc(C(=O)O)s1 (stereo partly drawn) [Example 13D, 5-(3-((2R)-2-((3R,E)-3-hydroxy-4-methylnon-1-en-6-yn-1-yl)-5-oxopyrrolidin-1-yl)prop-1-yn-1-yl)thiophene-2-carboxylic acid] |  | > 10000 nM |
| CCC#CCC(C)[C@H](O)/C=C/[C@H]1CCC(=O)N1CCCc1ccc(C(=O)O)s1 (stereo partly drawn) [Example 17F, 5-(3-((R)-2-((3S,E)-3-hydroxy-4-methylnon-1-en-6-yn-1-yl)-5-oxopyrrolidin-1-yl)propyl)thiophene-2-carboxylic acid] | 0.091 nM | > 10000 nM |
| CCC#CCC(C)[C@@H](O)/C=C/[C@H]1CCC(=O)N1CCCc1ccc(C(=O)O)s1 (stereo partly drawn) [Example 17G, 5-(3-((R)-2-((3R,E)-3-hydroxy-4-methylnon-1-en-6-yn-1-yl)-5-oxopyrrolidin-1-yl)propyl)thiophene-2-carboxylic acid] | 18.4 nM | > 10000 nM |
